Where two headings read alike, the source gives them in different places.
Tests used:
[1] = Cytotoxicity Determination (CCK-8, without addition of virus); type: cell-based; conditions: human, 50% cytotoxicity concentration (CC50)
Outline: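 HEp-2 cells were seeded at 1,500 cells/well one day before compound addition. Compounds were tested without virus in duplicate over 7 points from 100 μM in 1/2 steps, with 1% final DMSO, 5 days at 37 °C, 5% CO2. Viability was read by CCK-8 after 3-4 hours.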

[2] = system: Respiratory Syncytial Virus (RSV) long strain; test: microbe, parasite or virus in culture; type: cell-based; conditions: human respiratory syncytial virus, Tables A and B list compounds by EC50 band
Outline: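 HEp-2 cells infected with 100 TCID50 virus per well, compounds in duplicate, 9-point 1/3 dilutions from 100 μM or 1 μM, 1% DMSO. After 5 days at 37 °C, cell viability (CPE protection) read by CCK-8 absorbance at 450 nm, 630 nm background.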

recombinant RSV complex = recombinant RSV complex (Human respiratory syncytial virus A, UniProt P28887); test: RSV Polymerase Inhibition Assay; type: biochemical
Sequence of recombinant RSV complex (P28887 whole entry): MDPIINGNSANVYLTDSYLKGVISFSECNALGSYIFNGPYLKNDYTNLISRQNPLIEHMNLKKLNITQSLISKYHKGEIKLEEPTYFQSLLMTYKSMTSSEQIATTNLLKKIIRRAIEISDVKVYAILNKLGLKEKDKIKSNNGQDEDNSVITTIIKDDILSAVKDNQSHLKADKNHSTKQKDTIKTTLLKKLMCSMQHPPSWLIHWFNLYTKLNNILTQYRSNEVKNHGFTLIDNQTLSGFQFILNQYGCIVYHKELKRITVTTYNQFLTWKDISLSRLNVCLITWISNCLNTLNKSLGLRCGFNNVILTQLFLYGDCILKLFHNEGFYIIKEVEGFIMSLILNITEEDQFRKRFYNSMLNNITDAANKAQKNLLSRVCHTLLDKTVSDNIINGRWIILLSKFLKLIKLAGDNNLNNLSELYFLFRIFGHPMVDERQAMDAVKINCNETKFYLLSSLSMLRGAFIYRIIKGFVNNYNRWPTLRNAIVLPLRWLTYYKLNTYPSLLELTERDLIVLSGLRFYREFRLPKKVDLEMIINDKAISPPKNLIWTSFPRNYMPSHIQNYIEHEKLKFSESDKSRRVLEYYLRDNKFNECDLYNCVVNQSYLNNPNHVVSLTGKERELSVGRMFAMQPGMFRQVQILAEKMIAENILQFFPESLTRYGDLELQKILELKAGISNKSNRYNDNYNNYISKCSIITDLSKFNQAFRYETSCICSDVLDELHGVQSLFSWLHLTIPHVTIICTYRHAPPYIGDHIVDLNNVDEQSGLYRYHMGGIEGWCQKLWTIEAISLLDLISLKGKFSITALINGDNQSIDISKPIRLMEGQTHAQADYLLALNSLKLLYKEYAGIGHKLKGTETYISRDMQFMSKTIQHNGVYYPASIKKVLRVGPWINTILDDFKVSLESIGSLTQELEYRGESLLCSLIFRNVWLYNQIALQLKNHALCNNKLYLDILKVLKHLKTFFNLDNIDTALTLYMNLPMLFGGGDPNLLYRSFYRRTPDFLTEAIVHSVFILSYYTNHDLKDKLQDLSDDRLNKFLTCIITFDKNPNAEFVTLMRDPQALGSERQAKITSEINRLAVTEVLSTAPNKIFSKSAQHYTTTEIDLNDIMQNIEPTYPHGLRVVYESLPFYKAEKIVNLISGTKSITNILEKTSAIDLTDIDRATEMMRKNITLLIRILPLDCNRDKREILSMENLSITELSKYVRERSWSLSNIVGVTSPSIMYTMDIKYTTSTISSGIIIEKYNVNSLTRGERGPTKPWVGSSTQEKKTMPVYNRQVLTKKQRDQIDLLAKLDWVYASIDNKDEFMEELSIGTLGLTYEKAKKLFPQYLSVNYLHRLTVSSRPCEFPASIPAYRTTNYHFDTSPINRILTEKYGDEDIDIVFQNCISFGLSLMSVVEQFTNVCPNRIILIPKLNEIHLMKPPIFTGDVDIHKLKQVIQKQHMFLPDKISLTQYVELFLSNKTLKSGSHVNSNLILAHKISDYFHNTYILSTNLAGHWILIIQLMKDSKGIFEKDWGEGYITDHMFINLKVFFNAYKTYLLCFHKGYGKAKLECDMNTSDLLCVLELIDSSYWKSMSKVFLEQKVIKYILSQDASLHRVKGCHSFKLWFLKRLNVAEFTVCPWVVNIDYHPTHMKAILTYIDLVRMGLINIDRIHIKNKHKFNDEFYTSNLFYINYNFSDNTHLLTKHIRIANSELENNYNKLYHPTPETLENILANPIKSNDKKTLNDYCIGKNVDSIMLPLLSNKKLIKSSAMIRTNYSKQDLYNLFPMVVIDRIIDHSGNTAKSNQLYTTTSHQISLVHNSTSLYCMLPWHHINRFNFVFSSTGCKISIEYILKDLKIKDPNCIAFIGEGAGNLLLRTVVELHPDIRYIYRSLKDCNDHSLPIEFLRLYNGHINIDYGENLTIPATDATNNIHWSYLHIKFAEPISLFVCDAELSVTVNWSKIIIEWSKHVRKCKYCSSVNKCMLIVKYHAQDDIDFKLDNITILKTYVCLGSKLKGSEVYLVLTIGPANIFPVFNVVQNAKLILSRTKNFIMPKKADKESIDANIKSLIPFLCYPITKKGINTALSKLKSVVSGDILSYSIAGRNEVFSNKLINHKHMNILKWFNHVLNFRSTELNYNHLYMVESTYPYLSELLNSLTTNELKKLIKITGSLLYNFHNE
Sequence of recombinant RSV complex (P03421 whole entry, further chain): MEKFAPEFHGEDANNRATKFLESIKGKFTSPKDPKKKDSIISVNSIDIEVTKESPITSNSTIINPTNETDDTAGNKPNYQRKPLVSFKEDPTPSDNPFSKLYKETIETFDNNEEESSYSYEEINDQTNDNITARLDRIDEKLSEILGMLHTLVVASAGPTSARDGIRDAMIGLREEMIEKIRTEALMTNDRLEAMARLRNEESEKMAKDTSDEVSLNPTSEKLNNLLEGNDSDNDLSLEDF
Outline: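 10 nM recombinant RSV polymerase complex in Tris-HCl pH 7.5, 6 mM MgCl2 with RNA oligonucleotide template and radionucleotides, incubated 2 h at 30 °C with increasing inhibitor concentrations. Reaction stopped with EDTA; radiolabeled RNA product counted by scintillation.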

RSV replicon = test: microbe, parasite or virus in culture; type: cell-based; conditions: human respiratory syncytial virus, read-out: EC50, the concentration of the drug required for reducing RSV replicon RNA by 50%
[3] = HEp-2, 120 h, read-out: 50% effective concentration (EC50), HEp-2 cells infected with RSV long strain, 5 days, CCK-8 readout
[4] = 120 h, read-out: 50% effective concentration (EC50), HEp-2 cells infected with RSV long strain, 5 days, CCK-8 readout

Structure (SMILES) | CC50 at 5 days [1] [µM] | EC50 [2, 3] [µM] | IC50 (recombinant RSV complex) [µM] | EC50 (RSV replicon) [µM] | EC50 [2, 4] [µM] | IC50 (recombinant RSV complex; read-out: IC50 (compound concentration at which the enzyme-catalyzed rate was reduced by 50%), 10 nM recombinant RSV complex, 2 h at 30° C., Tables E, F and G list compounds by IC50 band) [µM]
COc1cc(C(=O)NCC(O)(c2ccc(OC)c(-c3ccc(F)c(Cl)c3)n2)C(F)(F)F)ccc1OC1(CF)CC1 (centres unmarked) [Compound 248] | > 100 | < 1 | < 1 | < 1 |  | 
COc1cc(C(=O)NCC(O)(c2ccc(OC)c(-c3ccc(F)c(Cl)c3)n2)C(F)(F)F)ccc1OC1(C)CC1 (centres unmarked) [Compound 249] | 10 to 100 | < 1 | < 1 | < 1 |  | 
COc1cc(C(=O)NCC(O)(c2ccc(OC)c(-c3ccc(F)c(Cl)c3)n2)C(F)(F)F)ccc1OC1COC1 (centres unmarked) [Compound 250] | 10 to 100 |  | < 1 | < 1 | < 1 | 
COc1cc(C(=O)NCC(O)(c2cc(C(C)(C)N)cc(-c3ccc(F)c(Cl)c3)n2)C(F)(F)F)ccc1O[C@H]1CCNC1=O (some centres unmarked) [Compound 283] | 10 to 100 | < 1 | < 1 | < 1 |  | 
COc1cc(C(=O)NCC(=O)c2cc3c(c(-c4ccc(F)c(C(C)F)c4)n2)OCCC3(C)C)ccc1OCCO (centres unmarked) [Compound 298] | 10 to 100 | < 1 | < 1 | < 1 |  | 
COc1cc(C(=O)NCC(=O)c2cc3c(c(-c4ccc(F)c(Cl)c4)n2)OCC=C3)ccc1OCCF [Compound 302] | > 100 | 1 to 50 | < 1 | < 1 |  | 
COc1cc(C(=O)NCC(=O)c2cc3c(c(-c4ccc(F)c(Cl)c4)n2)OCCC3)ccc1OCCF [Compound 303] | > 100 | < 1 | < 1 | < 1 |  | 
COc1cc(C(=O)NCC(=O)c2cc3c(c(-c4ccc(F)c(Cl)c4)n2)OCCC3)ccc1OCCO [Compound 304] | > 100 | < 1 | < 1 | < 1 |  | 
COc1cc(C(=O)NCC(O)(c2cc3c(c(-c4ccc(F)c(Cl)c4)n2)OCC3C)C2CC2)ccc1OCCO (centres unmarked) [Compound 308] | 10 to 100 | < 1 | < 1 | < 1 |  | 
COc1cc(C(=O)NCC(O)(c2cc3c(c(-c4ccc(F)c(Cl)c4)n2)OCCC3)C2CC2)ccc1OCCO (centres unmarked) [Compound 309] | 10 to 100 | < 1 | < 1 | < 1 |  | 
COc1cc(C(=O)NCC(O)(c2cc3c(c(-c4ccc(F)c(Cl)c4)n2)OCC3)C2CC2)ccc1OCCO (centres unmarked) [Compound 310] | 10 to 100 |  | < 1 | < 1 | < 1 | 
COc1cc(C(=O)NCC(O)(c2cc3c(c(-c4ccc(F)c(Cl)c4)n2)OCCC3(C)C)C2CC2)ccc1OCCO (centres unmarked) [Compound 312] | 10 to 100 | < 1 | < 1 | < 1 |  | 
COc1cc(C(=O)NCC(O)(c2ccc(OC)c(-c3ccc(F)c(Cl)c3)n2)C(C)(C)C)ccc1OCCF (centres unmarked) [Compound 313] | 10 to 100 | 1 to 50 | < 10 | 1 to 50 |  | 
CCOc1ccc(C(=O)NCC(O)(c2cc(C(C)(C)N)cc(-c3ccc(F)c(Cl)c3)n2)C(F)(F)F)cc1OC (centres unmarked) [Compound 315] | 10 to 100 | < 1 | < 1 | < 1 |  | 
COc1cc(C(=O)NCC(O)(c2cc(C(C)(C)N)cc(-c3ccc(F)c(Cl)c3)n2)C(F)(F)F)ccc1OC[C@@H](C)O (some centres unmarked) [Compound 317] | 10 to 100 | < 1 | < 1 | < 1 |  | 
COc1cc(C(=O)NCC(O)(c2cc(C(C)(C)N)cc(-c3ccc(F)cc3)n2)C(F)(F)F)ccc1OC1CC1 (centres unmarked) [Compound 318] | 10 to 100 | < 1 | < 1 | < 1 |  | 
COc1cc(C(=O)NCC(O)(c2cc(C(C)(C)N)cc(-c3ccc(F)c(Cl)c3)n2)C(F)(F)F)cc2cccnc12 (centres unmarked) [Compound 321] | 10 to 100 | < 1 | < 1 | < 1 |  | 
COc1cc(C(=O)NCC(O)(c2cc(C(C)(C)N)cc(-c3ccc(F)c(Cl)c3)n2)C(F)(F)F)ccc1OCC(N)=O (centres unmarked) [Compound 322] | 10 to 100 | < 1 | < 1 | < 1 |  | 
COc1cc(C(=O)NCC(O)(c2cc(C(C)(C)NC(C)=O)cc(-c3ccc(F)c(Cl)c3)n2)C(F)(F)F)ccc1OC1CC1 (centres unmarked) [Compound 326] | 10 to 100 | < 1 | < 1 | < 1 |  | 

Structure (SMILES) | CC50 at 5 days [1] [µM] | EC50 [2, 3] [µM] | IC50 (recombinant RSV complex) [µM] | EC50 (RSV replicon) [µM] | EC50 [2, 4] [µM] | IC50 (recombinant RSV complex; read-out: IC50 (compound concentration at which the enzyme-catalyzed rate was reduced by 50%), 10 nM recombinant RSV complex, 2 h at 30° C., Tables E, F and G list compounds by IC50 band) [µM]
COc1cc(C(=O)NCC(O)(c2cc(CN)cc(-c3ccc(F)c(Cl)c3)n2)C(F)(F)F)ccc1OC1CC1 (centres unmarked) [Compound 327] | 10 to 100 | < 1 | < 1 | < 1 |  | 
COc1cc(C(=O)NCC(O)(c2cc(CNC(C)=O)cc(-c3ccc(F)c(Cl)c3)n2)C(F)(F)F)ccc1OC1CC1 (centres unmarked) [Compound 328] | 10 to 100 | < 1 | < 1 | < 1 |  | 
COc1cc(C(=O)NCC(O)(c2cc(C(C)(C)NS(C)(=O)=O)cc(-c3ccc(F)c(Cl)c3)n2)C(F)(F)F)ccc1OC1CC1 (centres unmarked) [Compound 330] | 10 to 100 |  | < 1 | < 1 | < 1 | 
CCOC(=O)NC(C)(C)c1cc(-c2ccc(F)c(Cl)c2)nc(C(O)(CNC(=O)c2ccc(OC3CC3)c(OC)c2)C(F)(F)F)c1 (centres unmarked) [Compound 331] | > 100 | < 1 |  | < 1 |  | < 1
COc1cc(C(=O)NCC(O)(c2ccc(OC)c(-c3ccc(F)c(Cl)c3)n2)C(F)(F)F)ccc1OCCO (centres unmarked) [Compound 334] | 10 to 100 | < 1 | < 1 | < 1 |  | 
COc1cc(C(=O)NCC(O)(c2cc3c(c(-c4ccc(F)c(Cl)c4)n2)NCC3(C)C)C(F)(F)F)ccc1OC1CC1 (centres unmarked) [Compound 335] | > 100 | < 1 | < 1 | < 1 |  | 
COc1cc(C(=O)NCC(F)(c2ccc(OC)c(-c3ccc(F)c(Cl)c3)n2)C(F)(F)F)ccc1OC[C@@H](C)O (some centres unmarked) [Compound 342] | 10 to 100 | < 1 | < 1 | < 1 |  | 
COc1cc(C(=O)NCC(F)(c2ccc(OC)c(-c3ccc(F)c(Cl)c3)n2)C(F)(F)F)ccc1OCC(N)=O (centres unmarked) [Compound 343] | 10 to 100 | < 1 | < 1 | < 1 |  | 
COc1cc(C(=O)NCC(F)(c2ccc(OC)c(-c3ccc(F)c(Cl)c3)n2)C(F)(F)F)ccc1OC1CCNC1=O (centres unmarked) [Compound 344] | 10 to 100 | < 1 | < 1 | < 1 |  | 
COc1cc(C(=O)NCC(O)(c2ccc(OC)c(-c3ccc(F)c(Cl)c3)n2)C(F)(F)F)ccc1OC1CCNC1=O (centres unmarked) [Compound 349] | 10 to 100 | < 1 | < 1 | < 1 |  | 
COc1cc(C(=O)NCC(O)(c2cc(C(C)(C)NCCF)cc(-c3ccc(F)c(Cl)c3)n2)C(F)(F)F)ccc1OC1CC1 (centres unmarked) [Compound 356] | 10 to 100 | < 1 | < 1 | < 1 |  | 
COc1cc(C(=O)NCC(O)(c2cc(CN)cc(-c3ccc(F)c(Cl)c3)n2)C(F)(F)F)ccc1OC[C@@H](C)O (some centres unmarked) [Compound 357] | 10 to 100 | < 1 | < 1 | < 1 |  | 
COc1cc(C(=O)NCC(O)(c2ccc(OC)c(-c3ccc(F)c(Cl)c3)n2)C(F)(F)F)ccc1OC1CC1(F)F (centres unmarked) [Compound 358] | > 100 | < 1 | < 1 | < 1 |  | 
COc1ccc(C(=O)NCC(O)(c2ccc(OC)c(-c3ccc(F)c(Cl)c3)n2)C2CC2)cc1OC (centres unmarked) [Compound 359] | 10 to 100 | < 1 | < 1 | < 1 |  | 
COc1cc(C(=O)NCC(O)(c2ccc(OC)c(-c3ccc(F)c(Cl)c3)n2)C2CC2)ccc1OCc1ncn[nH]1 (centres unmarked) [Compound 360] | 10 to 100 |  | < 1 | < 1 | < 1 | 
COc1cc(C(=O)NCC(O)(c2cc(CN)cc(-c3ccc(F)cc3)n2)C(F)(F)F)ccc1OC1CC1 (centres unmarked) [Compound 361] | 10 to 100 | < 1 | < 1 | < 1 |  | 
COc1cc(C(=O)NCC(O)(c2ccc(OC)c(-c3ccc(F)c(Cl)c3)n2)C(F)(F)F)ccc1OCC(C)=O (centres unmarked) [Compound 362] | 10 to 100 | < 1 | < 1 | < 1 |  | 
COc1cc(C(=O)NCC(C)(F)c2ccc(OC)c(-c3ccc(F)c(Cl)c3)n2)ccc1OCCF (centres unmarked) [Compound 364] | 10 to 100 | < 1 | < 1 | < 1 |  | 
COc1cc(C(=O)NCC(C)(F)c2ccc(OC)c(-c3ccc(F)c(Cl)c3)n2)ccc1OCCO (centres unmarked) [Compound 365] | 10 to 100 | < 1 | < 1 | < 1 |  | 

Source: US11021444B2, “Antiviral compounds” (priority 2013, dated 2021)
